Experimental findings from patent publication US20230348415A1, “BISPECIFIC ANTAGONISTS OF RETINOL-BINDING PROTEIN 4 THAT STABILIZE TRANSTHYRETIN TETRAMERS, THEIR PREPARATION, AND USE IN THE TREATMENT OF COMMON AGE-RELATED COMORBIDITIES” (The Trustees of Columbia University in the City of New York, priority 2020, published 2023) are described below.

Like-named read-outs stand apart in the source and are kept apart here. Where only a bound is given, the exact number is not on record here.

One assay has as its target RBP4 (Homo sapiens (Human), UniProt P02753). As to the kind of experiment: RBP4 SPA binding assay (displacement of 3H-retinol).
The next assay concerns the target TTR (Homo sapiens (Human), UniProt P02766). As to the kind of experiment: biochemical. The assay is classed as binding. The conditions noted are these: FITC-coupled TTR FP probe; read-out: TTR FP IC50. Here is the method: Compound binding to TTR was assessed in the fluorescence polarization assay. […] Each well contained 200 nM TTR and 100 nM FITC-diclofenac in the FP buffer (10 mM Tris-HCl pH 7.5, 150 mM NaCl, 0.01% CHAPS, 0.01% Prionex) along with test compounds. Nonspecific binding was determined in the presence of 500 μM unlabeled diclofenac (Sigma-Aldrich). Reactions with test compounds were incubated overnight at 4° C. and FP was measured on SpectramaxM5e plate reader (Molecular Devices).

The mark [1] stands for this setting: fixed 10 nM 3H-retinol, read-out: RBP4 SPA IC50.

With `Cc1cc(C(=O)O)nc(N2CCC(COc3cccc(Cl)c3C(F)(F)F)C2)n1` (racemic) [Compound (±)-86, (k)-2-(3-((3-Chloro-2-(trifluoromethyl)phenoxy)methyl)pyrrolidin-1-yl)-6-methylpyrimidine-4-carboxylic Acid], the IC50 at RBP4 (setting [1]) stood at 0.18 µM; on TTR it was 3.9 µM.

Turning to `O=C(O)c1ccc(F)c(N2CCC(COc3ccccc3C(F)(F)F)C2)c1` (racemic) [(±)-98, (±)-4-Fluoro-3-(3-((2-(trifluoromethyl)phenoxy)methyl)pyrrolidin-1-yl)benzoic Acid], the IC50 was 2.35 µM on RBP4 and 1.88 µM on TTR.

On to `COc1ccc(C(F)(F)F)c(OCC2CCN(c3nc(C)cc(C(=O)O)n3)C2)c1` (racemic) [Compound (±)-90, (k)-2-(3-((5-Methoxy-2-(trifluoromethyl)phenoxy)methyl)pyrrolidin-1-yl)-6-methylpyrimidine-4-carboxylic Acid], for which the IC50 was more than 3 µM on RBP4 (setting [1]) and more than 30 µM on TTR.

On to `Cc1cc(C(=O)O)nc(N2CCC(COc3ccccc3C3CCCCC3)C2)n1` (racemic) [Compound (±)-85, (±)-2-(3-((2-Cyclohexylphenoxy)methyl)pyrrolidin-1-yl)-6-methylpyrimidine-4-carboxylic Acid], for which the IC50 on RBP4 is 0.21 µM; at TTR, more than 30 µM.

Turning to `Cc1cc(C(=O)O)nc(N2CC(Oc3ccccc3C(F)(F)F)C2)n1` [Compound 32, 6-Methyl-2-(3-(2-(trifluoromethyl)phenoxy)azetidin-1-yl)pyrimidine-4-carboxylic Acid], at TTR, the concentration for half-maximal inhibition (IC50) is 13.5 µM.

Regarding `Cc1cc(C(=O)O)nc(N2CCC3(CCN(c4ccccc4C(F)(F)F)C3)C2)n1` (racemic) [(±)-67, (±)-6-Methyl-2-(7-(2-(trifluoromethyl)phenyl)-2,7-diazaspiro[4.4]nonan-2-yl)pyrimidine-4-carboxylic Acid], the half-maximal inhibitory concentration (IC50) at RBP4 is 0.26 µM; at TTR, 1.6 µM.

Turning to `Cc1cc(C(=O)O)nc(N2CCC(OCc3ccccc3C(F)(F)F)C2)n1` (racemic) [(±)-80, (±)-6-Methyl-2-(3-((2-(trifluoromethyl)benzyl)oxy)pyrrolidin-1-yl)pyrimidine-4-carboxylic Acid], the results for the half-inhibitory concentration (IC50) at RBP4 and at TTR were more than 3 µM and 13 µM, respectively.

Take `O=C(O)c1cccc(N2CCC(COc3ccccc3C(F)(F)F)C2)n1` (racemic) [Compound (±)-96, (±)-6-(3-((2-(Trifluoromethyl)phenoxy)methyl)pyrrolidin-1-yl)picolinic acid]: the IC50 at RBP4 is more than 3 µM; on TTR, 25 µM.

`Cc1cc(C(=O)O)nc(N2CCC(COc3cccnc3C(F)(F)F)C2)n1` (racemic) [Compound (±)-93, (±)-6-Methyl-2-(3-(((2-(trifluoromethyl)pyridin-3-yl)oxy)methyl)pyrrolidin-1-yl)pyrimidine-4-carboxylic Acid]: the values for the 50% inhibitory concentration (IC50) at RBP4 and on TTR were 0.66 µM and more than 30 µM, respectively.

As for `O=C(O)c1ccnc(N2CCC(COc3ccccc3C(F)(F)F)C2)n1` (racemic) [Compound (±)-94, (±)-2-(3-((2-(Trifluoromethyl)phenoxy)methyl)pyrrolidin-1-yl)pyrimidine-4-carboxylic Acid], the half-maximal inhibitory concentration (IC50) at RBP4 amounted to 1.67 µM; at TTR it was 11 µM.

Consider `Cc1cc(C(=O)O)nc(N2CCC(COc3cc(C(F)(F)F)cc(C(F)(F)F)c3)C2)n1` (racemic) [Compound (±)-91, (k)-2-(3-((3,5-Bis(trifluoromethyl)phenoxy)methyl)pyrrolidin-1-yl)-6-methylpyrimidine-4-carboxylic Acid], for which the figures for the concentration for half-maximal inhibition (IC50) on RBP4 (setting [1]) and at TTR were 1.6 µM and more than 30 µM, respectively.

Consider `Cc1cc(C(=O)O)nc(N2CCC(Oc3ccccc3C(F)(F)F)C2)n1` (racemic) [(±)-27, (±)-6-Methyl-2-(3-(2-(trifluoromethyl)phenoxy)pyrrolidin-1-yl)pyrimidine-4-carboxylic Acid], for which the IC50 is more than 3 µM on RBP4 and 8.8 µM on TTR.

The term IC50 denotes the concentration at which inhibition is half-maximal.
